According to patent US20030165447A1, “Topical leave-on compositions containing pantothenic acid and its derivatives to reduce the need for underarm shaving” (The Procter & Gamble Company, priority 2001, published 2003):

Experiment: Acid or hold stability of sample compositions held at 85° C. for 24 hours
Type: physicochemical
Conditions: heated liquid held at 85° C., 24 hour period; 3.00% pantothenic acid derivative with 25.25% aluminum zirconium trichlorohydrate
Description: The topical leave-on compositions of the present invention are evaluated to determine the relative acid or hold stability of selected pantothenic acid derivatives as defined herein (e.g., ethyl panthenol, panthenyl triacetate) relative to other pantothenic acid derivatives (e.g., panthenol, calcium pantothenate). In this context, acid or hold stability is found to correlate with the lack of visibly apparent crystal formation within or extending from the sample product or by the lack of any significant off-odor development, over a 24 hours period at an elevated hold temperature of 85° C.
Each sample composition is formulated with the above-described ingredients and then held at 85° C. as a heated liquid for a 24 hour period and evaluated during that that period of time for any visibly apparent crystal formations within or extending from the formulation, and for any off-odor development. The evaluated product is maintained in the heated liquid state at 85° C. during the evaluation period to assimilate the elevated processing or hold temperatures often associated with the making of such antiperspirant and deodorant products, and to assimilate those conditions that favor acid-degradation of pantothenic acid derivatives as described herein.

| Off-odor formation | Compound | Visible crystal formation |
| --- | --- | --- |
| little or no off-odor development | CCOCCCNC(=O)[C@H](O)C(C)(C)CO [ethyl panthenol] | do not exhibit the undesirable crystal formation |
| little or no off-odor development | CC(=O)OCCCNC(=O)[C@H](OC(C)=O)C(C)(C)COC(C)=O [panthenyl triacetate] | do not exhibit the undesirable crystal formation |
